Earlier results as cited in patent publication US8058304B2, “Merged ion channel modulating compounds and uses thereof” (Cardiome Pharma Corp., priority 2004, dated 2011).

Tested on: patients with left ventricular dysfunction after recent and remote myocardial infarction
Conditions: optically pure d-sotalol; SWORD study, Lancet 1996

CC(C)NC[C@@H](O)c1ccc(NS(C)(=O)=O)cc1 [d-sotalol]
increased mortality compared to placebo: 65%
